This note sets out measurements from ChEMBL document CHEMBL1145710, “Antineoplastic agents. 362. Isolation and X-ray crystal structure of dibromophakellstatin from the Indian ocean sponge Phakellia mauritiana” (1997).

Values after ≈ are worked out from the molar mass of the structure shown.

One may read the GI50 as the concentration at which growth is held to half of that of the control. Low readings indicate greater sensitivity of the cells, high ones lower sensitivity of the cells.

What all share (assay type): functional
For experiment [1], the system named is HCT-116. Description: Cytotoxicity against human HCT116 cells by SRB assay. In general terms: Sulforhodamine B stains cellular protein and so reports cell mass.
In experiment [2] the test system is MDA-MB-231. Put plainly: Cytotoxicity against human MDA-MB-231 cells by SRB assay.
The test system of experiment [3] is KM-20L2. Description: Cytotoxicity against human KM20L2 cells by SRB assay. The note with it: read-out: ED50 (the source's name).
In experiment [4] the test system is K562. Put plainly: Cytotoxicity against human K562 cells by SRB assay.
For experiment [5], the system named is OVCAR-3. Put plainly: Cytotoxicity against human OVCAR-3 cells by SRB assay. The note with it: read-out: ED50 (the source's name).
The test system of experiment [6] is U-251. Put plainly: Cytotoxicity against human U251 cells by SRB assay.
For experiment [7], the system named is NCI-H522. Put plainly: Cytotoxicity against human NCI-H522 cells by SRB assay.
Experiment [8] relates to SF-295. Description: Cytotoxicity against human SF295 cells by SRB assay. The conditions noted are these: read-out: ED50 (the source's name).
In experiment [9] the test system is NCI-H226. Description: Cytotoxicity against human NCI-H226 cells by SRB assay.
For experiment [10], the system named is HOP-92. Put plainly: Cytotoxicity against human HOP92 cells by SRB assay.
Experiment [11] relates to 786-0. Put plainly: Cytotoxicity against human 786-0 cells by SRB assay.
Experiment [12] concerns HT-29. Put plainly: Cytotoxicity against human HT-29 cells by SRB assay.
Experiment [13] can be described thus: Cytotoxicity against human Hs 578T cells by SRB assay.
For experiment [14], the system named is OVCAR-8. Description: Cytotoxicity against human OVCAR8 cells by SRB assay.
The test system of experiment [15] is NCI-H460. Description: Cytotoxicity against human H460 cells by SRB assay. The note with it: read-out: ED50 (the source's name).
Experiment [16] in a line: Cytotoxicity against human MCF7/ADR cells by SRB assay. The conditions noted are these: NCI/ADR-RES.
Experiment [17] concerns A498. Description: Cytotoxicity against human A498 cells by SRB assay. The note with it: read-out: ED50 (the source's name).
In experiment [18] the test system is A549. Description: Cytotoxicity against human A549 cells by SRB assay.
The test system of experiment [19] is SNB-75. Description: Cytotoxicity against human SNB75 cells by SRB assay.
The test system of experiment [20] is SF-539. Description: Cytotoxicity against human SF539 cells by SRB assay.
Experiment [21] has as its system SK-MEL-5. Put plainly: Cytotoxicity against human SK-MEL-5 cells by SRB assay. The conditions noted are these: read-out: ED50 (the source's name).
The subject of experiment [22] is PC-3. Put plainly: Cytotoxicity against human PC3 cells by SRB assay.
The test system of experiment [23] is COLO 205. Description: Cytotoxicity against human COLO205 cells by SRB assay.
In experiment [24] the test system is OVCAR-5. Description: Cytotoxicity against human OVCAR5 cells by SRB assay.

For `O=C1N[C@H]2n3c(cc(Br)c3Br)C(=O)N3CCC[C@]23N1` [DIBROMOPHAKELLSTATIN], the GI50 was 575 nM in experiment [1]; 724 nM in [2]; 692 nM in experiment [4]; 589 nM in experiment [6]; 240 nM in experiment [7]; 871 nM in [9]. In addition, the GI50 is 490 nM in experiment [10]; 603 nM in experiment [11]; 631 nM in experiment [12]; 871 nM in [13]; 120 nM in experiment [14]; 525 nM in experiment [16]. The GI50 in experiment [18] was 676 nM; in [19] it was 776 nM; in experiment [20], 617 nM; in experiment [22] it was 708 nM; in experiment [23] it was 794 nM; in [24], 676 nM. The EC50 in experiment [3] came to 0.11 µg/mL (≈ 0.282 µM); in [5] it was 0.46 µg/mL (≈ 1.18 µM); in experiment [8], 1.5 µg/mL (≈ 3.85 µM); in [15], 0.62 µg/mL (≈ 1.59 µM); in [17], 0.21 µg/mL (≈ 0.538 µM); in experiment [21] it was 0.11 µg/mL (≈ 0.282 µM).

Consider `NC1=N/C(=C2/CCNC(=O)c3[nH]ccc32)C(=O)N1` [DEBROMOHYMENIALDISINE], for which the EC50 in experiment [3] was 8.5 µg/mL (≈ 34.7 µM); in experiment [5] it was 1.8 µg/mL (≈ 7.34 µM); in experiment [8] it was 38.9 µg/mL (≈ 159 µM); in experiment [15], 42 µg/mL (≈ 171 µM); in experiment [17], 24.7 µg/mL (≈ 101 µM); in [21] it was 5.7 µg/mL (≈ 23.2 µM).

As to `NC1=N[C@]23CCCN2C(=O)c2cc(Br)c(Br)n2[C@@H]3N1` [DIBROMOPHAKELLIN], the EC50 was determined as 20.1 µg/mL (≈ 51.7 µM) in experiment [3]; 15.7 µg/mL (≈ 40.4 µM) in [5]; 18.8 µg/mL (≈ 48.3 µM) in [8]; 22 µg/mL (≈ 56.5 µM) in experiment [15]; 17.8 µg/mL (≈ 45.8 µM) in experiment [17]; 17 µg/mL (≈ 43.7 µM) in [21].
